Entries after “also recorded” stand apart in the source; their conditions may differ. A value given as a limit tells only on which side of the number the result lay.

The test system of series [1] is hippocampal slices, CA1 area. Type of series: cell-based.
In another series the test system is hippocampal slices. As to the kind of experiment: paired-pulse facilitation in hippocampal slices. Type of series: cell-based.
For series [2], the system named is serum butyrylcholinesterase (BuChE). As to the kind of experiment: serum BuChE activity after injection in mice. To be noted: for reduction of serum BuChE activity from normal levels: non-stressed mice, 0.1 mg/kg i.p., 10 minutes, 3 animals/group. It counts as in vivo, mouse. As to the method:
Symptoms were reported at the end of the study.
Stress Induction: Stress was induced in adult FVB/N mice by 2×4 minute forced swim with a 4 minute rest interval in a 60×60 cm water bath at about 21° C., adapted from Melia et al, [1994]. […] Animals were decapitated 10 minutes following injection, trunk blood was collected [Melia et al, 1994], and cerebral cortex was quickly dissected and homogenized in solution D (10 mM Tris-HCl, pH 7.4, 1M NaCl, 1% Triton-X100, 1 mM EDTA, 1:10 weight/volume)[Neville et al, 1990]

Series [3] can be described thus: brain penetration of Evans-blue dye following stress. The following applies: stressed versus control.
Series [4] can be described thus: BBB permeability to Evans Blue following stress, adrenaline or atropine (Example 2).
The next series deals with AChE mRNA. The series can be described thus: brain AChE mRNA by RT-PCR after pyridostigmine in mice. To be noted: pyridostigmine administration, FIG. 10A lower panel. It counts as in vivo, mouse.
Series [5] concerns serum BuChE. To be noted: 0.1-0.5 mg/kg; cited from earlier work.
In series [6] the test system is readthrough (I4) AChEmRNA. As to the kind of experiment: readthrough (I4) AChEmRNA by RT-PCR / in situ hybridization. Type of series: cell-based, mouse. From the text: FIG. 7A are photographs showing kinetic follow-up of RT-PCR: Positions of primer pairs specific for the alternatively spliced AChEmRNA subtypes are presented on the left. [Primer pair 1361+/1869- ("E6") detects mRNA encoding the synaptic AChE form; […] ("I4/E5") detects both a 549 bp product of readthrough AChEmRNA and a 432 bp product encoding the GPI-lined red blood cell (RBC) form of the enzyme]. Note that both in vivo stress and in vitro AChE inhibition promoted significant increases of the readthrough (I4) but not the synaptic (E6) or erythrocyte (E5) forms of AChEmRNA. […] Signals were detected using alkaline phosphatase-streptavidin conjugates and Fast Red as a substrate. Shown are cortical layers II-V (upper panels), and magnified pyramidal neurons of cortical layer no. 2 (lower panels).
Selective induction of readthrough AChEmRNA following stress and AChE inhibition were measured using kinetic follow-up of RT-PCR. The positions of primer pairs specific for the alternatively spliced AChEmRNA subtypes are presented on the left of the FIG. 7. [Primer pair 1361+/1869- ("E6") detects mRNA encoding the synaptic AChE form; 1361+/175- ("I4/E5") detects both a 549 bp product of readthrough AChEmRNA and a 432 bp product encoding the GPI-lined red blood cell (RBC) form of the enzyme]. Both in vivo stress (forced swimming) and in vitro AChE inhibition promoted significant increases of the readthrough (I4) but not the synaptic (E6) or erythrocyte (E5) forms of AChEmRNA. […] Signals were detected using alkaline phosphatase-streptavidin conjugates and Fast Red as a substrate. […] 2 (lower panels).

Series [7] can be described thus: PNS symptoms questionnaire, pyridostigmine in humans.
The test system of series [8] is serum BuChE. To be noted: cited from earlier work.
The test system of series [9] is c-fos mRNA. The series can be described thus: brain c-fos mRNA by RT-PCR after pyridostigmine in mice. Type of series: in vivo, mouse. To be noted: 20 minutes following 2 mg/kg.
The conditions of series [10]: cited from earlier work.
The next series concerns synaptophysin mRNA. The series can be described thus: synaptophysin mRNA control test, in vivo or in brain slices. Type of series: cell-based.
The conditions of series [11]: similar regimen; cited from earlier work.
How the values of series [12] were obtained: Symptoms were reported at the end of the study. […] Percent inhibition (standard deviation was calculated in comparison to the average activity calculated in non-injected, not-stressed (n=12) and stressed (n=6) animals.
In both human studies each individual was asked to report on a yes/no questionnaire regarding symptoms related to the drug.

This is another data set of the same source.
Series [13] in a line: HRP penetration into brain following swim stress (immunohistochemistry).
A further series relates to ChAT or VAChT mRNA. Type of series: cell-based, mouse. The following applies: with pyridostigmine 1 mM, 1 hour; BAPTA-AM 1 uM or TTX.
Series [14] concerns c-fos mRNA. It counts as cell-based, mouse. The following applies: with pyridostigmine 1 mM, 1 hour; BAPTA-AM 1 uM or TTX.

As to `CNC(=O)Oc1ccc2c(c1)[C@]1(C)CCN(C)[C@@H]1N2C` [physostigmine], in series [1], the “responsiveness of cholinergic pathways to stimulation” value is recorded as “prominently muted, approaching that displayed by control slices”. Moreover, the “paired-pulse facilitation responses, 1 hour” value in the series with hippocampal slices (1 mM physostigmine, 1 hour) was “prolonged duration and the intense signals of facilitation responses”. The “paired-pulse facilitation responses, 3 hours” value in the series on hippocampal slices (1 mM physostigmine, 3 hours) was “suppression of both these responses”. Moreover, the “reduction of serum BuChE activity from normal levels” value in [2] is 22.6+/-5.4%.
For the molecule `C[N+](C)(C)CCOC(N)=O` [carbachol], in series [1], the “amplitude of population spikes” value is recorded as “increased the amplitude of population spikes” and the “signal increase by carbamylcholine” value is listed as “dose-dependent increases in signal”.
Turning to `CN1[C@@H]2CC[C@H]1C[C@@H](OC(=O)C(CO)c1ccccc1)C2` (some centres unmarked) [atropine], in series [1], the “both phases of physostigmine-mediated hyperactivity” value is recorded as “blocked” and the “suppression 1 hour after removal of atropine” value is recorded as “no suppression took place”.
Consider `Cc1cc(-c2ccc(/N=N/c3ccc4c(S(=O)(=O)O)cc(S(=O)(=O)O)c(N)c4c3O)c(C)c2)ccc1/N=N/c1ccc2c(S(=O)(=O)O)cc(S(=O)(=O)O)c(N)c2c1O` [Evans-blue], for which the “increase in brain penetration of Evans-blue under stress” value in series [3] is reported as more than 10 fold. In addition, the “BBB permeability to Evans Blue” value in series [4] (following stress or 10 minutes after ip adrenaline or atropine) is on record as “enhanced BBB permeability”.
Regarding `CN(C)C(=O)Oc1ccc[n+](C)c1` [pyridostigmine], the “AChE mRNA product appearance” value in the series with AChE mRNA is recorded as “earlier appearance”. In the series with serum BuChE [5], the “inhibition of serum BuChE activity at protective doses” value was 15-30%. Moreover, the “subcellular localization of I4-AChEmRNA” value in series [6] (pyridostigmine 2 mg/kg) was “shifted from around the nucleus under control conditions to the entire cell bodies and their apical dendrites”. For the same molecule, the “I4-AChEmRNA labeling of cortical layers” value in [6] (pyridostigmine 2 mg/kg, control: layers II+V) was “intensified and included layer III+IV”. In addition, in series [6] (pyridostigmine exposure), the “readthrough AChE mRNA labeling of somata and apical dendrites, all cortical layers” value is recorded as “intensely labeled”. Further, in [7] (Gulf War, 213 soldiers), the “soldiers reporting PNS symptoms, average” value is recorded as 11.4% and the “soldiers reporting PNS symptoms, range” value is listed as 6.1-20.4%. In series [7] (peace time, double-blind), the “participants reporting PNS symptoms, average” value is reported as 18.8% and the “participants reporting PNS symptoms, range” value is recorded as 5.5-38.9%. Further, the “inhibition efficacy of serum butyrylcholinesterase, Gulf War” value with serum BuChE [8] is on record as “not modified”. Also, the “amplitude and rate of rise of evoked population spikes in CA1” value in series [1] was “increase in the amplitude and rate of rise of evoked population spikes”. The “amount of c-fos and AChE mRNA (earlier appearance of PCR product)” value with c-fos mRNA [9] is “increase in the amount of c-fos (upper panel) and AChE mRNA (lower panel)”. Moreover, the “reduction of serum BuChE activity from normal levels” value in [2] is recorded as 16.7+/-6.9%. Also, in series [2] (stressed mice, 0.1 mg/kg), the “BuChE inhibition in stressed mice” value is reported as “tendency toward limitation of BuChE inhibition”. Besides, the “CNS functions in primates” value in series [10] (doses >1 mg/kg) is reported as “perturb CNS functions”. For the same molecule, the “CNS functions in non-stressed primates or humans at peace time” value in series [10] (non-stressed) is reported as “unaffected CNS functions”. In addition, the “synaptophysin mRNA” value in the series on synaptophysin mRNA is “no change”. Also, the “frequency of reported CNS symptoms, increase during the Gulf War” value in series [11] was more than 3 fold. Also, in [12] (Gulf War, 213 soldiers), the “soldiers reporting CNS symptoms, average” value came out at 23.6% and the “soldiers reporting CNS symptoms, range” value is 6.2-53.4%. In addition, in [12] (peace time, double-blind), the “participants reporting CNS symptoms, average” value is on record as 8.3% and the “participants reporting CNS symptoms, range” value is 0-16.6%.
Regarding `CNCC(O)c1ccc(O)c(O)c1` (centres unmarked) [adrenaline], the “effectiveness in opening the BBB compared with stress” value in series [4] (administered doses and time course, atropine or adrenaline ip) is on record as “somewhat less effective”.
As for `CC(C)NC[C@H](O)COc1cccc2ccccc12` (racemic) [propanolol], the “time for body temperature to return to normal” value (post injection) is not above 80 min. In addition, the “time of reduction in body temperature” value (pyridostigmine alone or together with propanolol) was not above 40 min.
As for “HRP: horseradish peroxidase, used to study changes in the BBB”, the “HRP staining of the hippocampus” value in [13] (following forced swimming) is reported as “highest number of stained cells; also recorded: strong HRP staining”. In series [13] (forced swimming stress), the “penetration of HRP into brain” value is listed as “increased penetration”. In [13] (non-stressed control), the “HRP staining, Corpus callosum, non-stressed control” value is “little staining”; the “HRP staining, Hippocampus, CA1-2, non-stressed control” value is on record as “no staining”; the “HRP staining, Medial hypothalamus (arcuate nucleus), non-stressed control” value is on record as “+ (diffuse staining)”. For the same molecule, in series [13] (stressed), the “HRP staining, Hippocampus, CA1-2, stressed” value was “staining of cells”. Further, in [13] (stressed mice), the “HRP staining of central nucleus of amygdala and paraventricular nucleus of hypothalamus” value was “absence of HRP staining”.
Turning to `NCCc1ccc(O)c(O)c1` [DA], the “enhancement of the body temperature reduction by coinjection” value (DA 1.0 mg/kg with pyridostigmine 0.6 mg/kg) was “approximately 0.5 °C”.
For `CC(=O)OCOC(=O)CN(CC(=O)OCOC(C)=O)c1ccccc1OCCOc1ccccc1N(CC(=O)OCOC(C)=O)CC(=O)OCOC(C)=O` [BAPTA-AM], the “anti-cholinesterase-induced change in ChAT mRNA” value in the series with ChAT or VAChT mRNA is on record as “attenuated; also recorded: suppressed”. For the same molecule, the “physostigmine-induced prolongation of paired-pulse facilitation” value with hippocampal slices (1 uM physostigmine and 1 uM BAPTA-AM, 1 hour) is recorded as “complete prevention”. The enhanced paired-pulse facilitation entry in the series with hippocampal slices (BAPTA-AM, FIG. 5A) is “prevented”. Further, the “anti-cholinesterase-induced change in c-fos mRNA” value in the series on c-fos mRNA [14] is recorded as “attenuated; also recorded: suppressed”.
